The values below come from patent US20240174647A1 (NEURON23, INC., priority 2022, published 2024).

For the assay, the target named is wt human LRRK2, catalytic site (Homo sapiens (Human), UniProt Q5S007). In words: TR-FRET LanthaScreen Tb Kinase Activity Assay (LRRK2 kinase inhibition). Format: biochemical. The conditions noted are these: 2 nM wt human LRRK2, 400 nM fluorescein-ERM (LRRKtide) peptide, 38 μM ATP, 120 minutes at room temperature. In a few lines: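 LanthaScreen TR-FRET with 2 nM wt human LRRK2 catalytic site, 400 nM fluorescein-ERM (LRRKtide) peptide and 38 µM ATP in Kinase Buffer A; 120 min at room temperature. Phosphorylation detected with EDTA and Tb-anti-pLRRKtide after 60 min; IC50 from emission ratios.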
Chain of wt human LRRK2, catalytic site (Q5S007 1879-2138): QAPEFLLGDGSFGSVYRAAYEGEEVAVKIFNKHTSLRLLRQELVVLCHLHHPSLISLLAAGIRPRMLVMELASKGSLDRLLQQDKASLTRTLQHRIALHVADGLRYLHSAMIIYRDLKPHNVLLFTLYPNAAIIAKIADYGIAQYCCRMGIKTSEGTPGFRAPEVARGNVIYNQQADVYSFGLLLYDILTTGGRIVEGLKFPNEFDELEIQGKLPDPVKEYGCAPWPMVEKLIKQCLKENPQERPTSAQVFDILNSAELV
(TR-FRET usually uses a lanthanide donor and a delayed reading to cut background.)

What is called IC50 is the concentration needed to halve the response being measured.

Where only a bound is given, the exact number is not on record here.

The compound `FCCNc1nc(Nc2cccc3c2cnn3CC(F)F)ncc1C(F)(F)F` [Example 142, N^2-[1-(2,2-difluoroethyl)indazol-4-yl]-N^4-(2-fluoroethyl)-5-(trifluoromethyl) pyrimidine-2,4-diamine] displayed an IC50 of less than 0.05 µM. Next, `CCS(=O)(=O)n1ncc2c(Nc3ncc(C(F)(F)F)c(NC4CC4)n3)cccc21` [Example 143, N^4-cyclopropyl-N^2-(1-ethylsulfonylindazol-4-yl)-5-(trifluoromethyl)pyrimidine-2,4-diamine]: less than 0.05 µM. The compound `CC(C)(C#N)n1ncc2c(Nc3ncc(C(F)(F)F)c(NCCF)n3)cccc21` [Example 144, 2-(4-((4-((2-fluoroethyl)amino)-5-(trifluoromethyl)pyrimidin-2-yl)amino)-1H-indazol-1-yl)-2-methylpropanenitrile] yielded an IC50 of less than 0.05 µM. The compound `COCCNc1nc(Nc2cccc3c2cnn3S(=O)(=O)C2CC2)ncc1C(F)(F)F` [Example 145, N^2-(1-cyclopropylsulfonylindazol-4-yl)-N^4-(2-methoxyethyl)-5-(trifluoromethyl) pyrimidine-2,4-diamine] returned an IC50 of less than 0.05 µM.

As to `CC(C)(O)Cn1ncc2c(Nc3ncc(C(F)(F)F)c(NC4CC4)n3)cccc21` [Example 146, 1-[4-[[4-(cyclopropylamino)-5-(trifluoromethyl)pyrimidin-2-yl]amino]indazol-1-yl]-2-methyl-propan-2-ol], the IC50 was less than 0.05 µM. `CCNc1nc(Nc2cccc3c2cnn3CC(F)F)nc2[nH]cc(Cl)c12` [Example 147, 5-chloro-N^2-(1-(2,2-difluoroethyl)-1H-indazol-4-yl)-N^4-ethyl-7H-pyrrolo[2,3-d]pyrimidine-2,4-diamine] came in with an IC50 of less than 0.05 µM. In turn, `CS(=O)(=O)n1ncc2c(Nc3ncc(C(F)(F)F)c(N[C@@H]4CCOC4)n3)cccc21` [Example 148, (R)—N^2-(1-(methylsulfonyl)-1H-indazol-4-yl)-N-(tetrahydrofuran-3-yl)-5-(trifluoromethyl)pyrimidine-2,4-diamine] came in with an IC50 of less than 0.05 µM. In turn, `CS(=O)(=O)n1ncc2c(Nc3ncc(C(F)(F)F)c(N[C@H]4CCOC4)n3)cccc21` [Example 149, (S)—N^2-(1-(Methylsulfonyl)-1H-indazol-4-yl)-N^4-(tetrahydrofuran-3-yl)-5-(trifluoromethyl)pyrimidine-2,4-diamine] had an IC50 of less than 0.05 µM. In turn, `CS(=O)(=O)n1ncc2c(Nc3ncc(C(F)(F)F)c(NC4CCC4)n3)cccc21` [Example 150, N^4-cyclobutyl-N^2-(1-methylsulfonylindazol-4-yl)-5-(trifluoromethyl)pyrimidine-2,4-diamine] yielded an IC50 of less than 0.05 µM. Take `CCNc1nc(Nc2cccc3c2cnn3S(C)(=O)=O)nc2[nH]cc(Cl)c12` [Example 151, 5-chloro-N^4-ethyl-N^2-(1-methylsulfonylindazol-4-yl)-7H-pyrrolo[2,3-d]pyrimidine-2,4-diamine]: the IC50 is less than 0.05 µM. `CCNc1nc(Nc2cccc3c2cnn3S(C)(=O)=O)ncc1Cl` [Example 152, 5-chloro-N4-ethyl-N^2-(1-(methylsulfonyl)-1H-indazol-4-yl)pyrimidine-2,4-diamine] gave an IC50 of less than 0.05 µM. Then `O=S(=O)(C1CC1)n1ncc2c(Nc3ncc(C(F)(F)F)c(NC4CC4)n3)ccc(F)c21` [Example 153, N^4-cyclopropyl-N^2-(1-(cyclopropylsulfonyl)-7-fluoro-1H-indazol-4-yl)-5-(trifluoromethyl) pyrimidine-2,4-diamine], with less than 0.05 µM; and `CCNc1nc(Nc2cccc3c2cnn3C(C)(C)C#N)ncc1C(F)(F)F` [Example 154, 2-(4-((4-(ethylamino)-5-(trifluoromethyl)pyrimidin-2-yl)amino)-1H-indazol-1-yl)-2-methylpropanenitrile], with less than 0.05 µM; and `COCCNc1nc(Nc2cccc3c2cnn3C(C)(C)C#N)ncc1C(F)(F)F` [Example 155, 2-[4-[[4-(2-methoxyethylamino)-5-(trifluoromethyl)pyrimidin-2-yl]amino]indazol-1-yl]-2-methyl-propanenitrile], with less than 0.05 µM. `CCNc1nc(Nc2cccc3c2cnn3C(C)(C)C#N)nc2[nH]cc(Cl)c12` [Example 156, 2-(4-((5-chloro-4-(ethylamino)-7H-pyrrolo[2,3-d]pyrimidin-2-yl)amino)-1H-indazol-1-yl)-2-methylpropanenitrile] returned an IC50 of less than 0.05 µM. `CC(C)(C#N)n1ncc2c(Nc3ncc(C(F)(F)F)c(NC4CC(O)C4)n3)cccc21` (stereo not shown) [Example 157, 2-[4-[[4-[(3-hydroxycyclobutyl)amino]-5-(trifluoromethyl)pyrimidin-2-yl]amino]indazol-1-yl]-2-methyl-propanenitrile] yielded an IC50 of less than 0.05 µM. Next, `CCOc1nc(Nc2cccc3c2cnn3S(C)(=O)=O)nc2[nH]cc(Cl)c12` [Example 158, 5-chloro-4-ethoxy-N-(1-methylsulfonylindazol-4-yl)-7H-pyrrolo [2,3-d]pyrimidin-2-amine]: less than 0.05 µM; `O=S(=O)(C1CC1)n1ncc2c(Nc3ncc(C(F)(F)F)c(NC4CC4)n3)ccnc21` [Example 159, N^4-cyclopropyl-N^2-(1-(cyclopropylsulfonyl)-1H-pyrazolo[3,4-b]pyridin-4-yl)-5-(trifluoromethyl)pyrimidine-2,4-diamine]: less than 0.05 µM. Take `FC(F)(F)c1cnc(Nc2ccc3c4c2cnn4CCCO3)nc1NC1CC1` [Example 160, N^4-cyclopropyl-N^2-(9-oxa-1,2-diazatricyclo[6.4.1.04,13]trideca-2,4,6,8(13)-tetraen-5-yl)-5-(trifluoromethyl)pyrimidine-2,4-diamine]: the IC50 is less than 0.05 µM. Then `CNc1nc(Nc2ccc3c4c2cnn4CCCO3)ncc1C(F)(F)F` [Example 161], with less than 0.05 µM; and `CCOc1nc(Nc2cccc3c2cnn3C(C)(C)C#N)nc2[nH]cc(Cl)c12` [Example 162, 2-[4-[(5-chloro-4-ethoxy-7H-pyrrolo[2,3-d]pyrimidin-2-yl)amino]indazol-1-yl]-2-methyl-propanenitrile], with less than 0.05 µM. As for `CS(=O)(=O)CCn1ncc2c(Nc3ncc(C(F)(F)F)c(NC4CCC4)n3)cccc21` [Example 163, N^4-cyclobutyl-N^2-(1-(2-(methylsulfonyl)ethyl)-1H-indazol-4-yl)-5-(trifluoromethyl)pyrimidine-2,4-diamine], the IC50 was less than 0.05 µM.

Compound `CCNc1nc(Nc2cccc3c2cnn3CC(C)(C)O)ncc1C(F)(F)F` [Example 164, 1-[4-[[4-(ethylamino)-5-(trifluoromethyl)pyrimidin-2-yl]amino]indazol-1-yl]-2-methyl-propan-2-ol] came in with an IC50 of less than 0.05 µM. `CCOc1nc(Nc2cccc3c2cnn3CC(F)F)nc2[nH]cc(Cl)c12` [Example 165, 5-chloro-N-[1-(2,2-difluoroethyl)indazol-4-yl]-4-ethoxy-7H-pyrrolo[2,3-d]pyrimidin-2-amine] returned an IC50 of less than 0.05 µM.

The compound `C[C@@]1(n2ncc3c(Nc4ncc(C(F)(F)F)c(NC5CC5)n4)cccc32)CCOC1=O` [Example 166, (R)-3-(4-((4-(cyclopropylamino)-5-(trifluoromethyl)pyrimidin-2-yl)amino)-1H-indazol-1-yl)-3-methyldihydrofuran-2(3H)-one] showed an IC50 of less than 0.05 µM.

For `C[C@]1(n2ncc3c(Nc4ncc(C(F)(F)F)c(NC5CC5)n4)cccc32)CCOC1=O` [Example 167, (S)-3-(4-((4-(cyclopropylamino)-5-(trifluoromethyl)pyrimidin-2-yl)amino)-1H-indazol-1-yl)-3-methyldihydrofuran-2(3H)-one], the IC50 is less than 0.05 µM. Compound `FC(F)(F)c1cnc(Nc2cccc3c2cnn3CC2CC2)nc1NC1CC1` [Example 168, N^4-cyclopropyl-N^2-(1-(cyclopropylmethyl)-1H-indazol-4-yl)-5-(trifluoromethyl)pyrimidine-2,4-diamine] showed an IC50 of less than 0.05 µM. `CC(C)n1ncc2c(Nc3ncc(C(F)(F)F)c(NC4CC4)n3)cccc21` [Example 169, N4-cyclopropyl-N2-(1-isopropyl-1H-indazol-4-yl)-5-(trifluoromethyl)pyrimidine-2,4-diamine] registered a concentration for half-maximal inhibition (IC50) of less than 0.05 µM. Next, `O=S(=O)(CCn1ncc2c(Nc3ncc(C(F)(F)F)c(NC4CC4)n3)cccc21)C1CC1` [Example 170, N^4-cyclopropyl-N^2-(1-(2-(cyclopropylsulfonyl)ethyl)-1H-indazol-4-yl)-5-(trifluoromethyl)pyrimidine-2,4-diamine]: less than 0.05 µM; `CCS(=O)(=O)CCn1ncc2c(Nc3ncc(C(F)(F)F)c(NC4CC4)n3)cccc21` [Example 171, N^4-cyclopropyl-N^2-(1-(2-(ethylsulfonyl)ethyl)-1H-indazol-4-yl)-5-(trifluoromethyl)pyrimidine-2,4-diamine]: less than 0.05 µM.

Take `CC(C)(O)Cn1ncc2c(Nc3ncc(C(F)(F)F)c(NC4CC4)n3)ccc(F)c21` [Example 172, 1-(4-((4-(cyclopropylamino)-5-(trifluoromethyl)pyrimidin-2-yl)amino)-7-fluoro-1H-indazol-1-yl)-2-methylpropan-2-ol]: the IC50 was less than 0.05 µM. Next, `CC(C)(O)Cn1ncc2c(Nc3ncc(C(F)F)c(NC4CC4)n3)cccc21` [Example 173, 1-[4-[[4-(cyclopropylamino)-5-(difluoromethyl)pyrimidin-2-yl]amino]indazol-1-yl]-2-methyl-propan-2-ol]: less than 0.05 µM; `Cc1ccc(Nc2ncc(C(F)(F)F)c(NC3CC3)n2)c2cnn(CCS(C)(=O)=O)c12` [Example 174, N4-cyclopropyl-N2-(7-methyl-1-(2-(methylsulfonyl)ethyl)-1H-indazol-4-yl)-5-(trifluoromethyl)pyrimidine-2,4-diamine]: less than 0.05 µM; `CC(C)(O)Cn1ncc2c(Nc3ncc(C(F)F)c(NC4CC4)n3)ccc(F)c21` [Example 175, 1-[4-[[4-(cyclopropylamino)-5-(difluoromethyl)pyrimidin-2-yl]amino]-7-fluoro-indazol-1-yl]-2-methyl-propan-2-ol]: less than 0.05 µM.
